Measurements as given in US20220324860A1, “SUBSTITUTED PYRAZOLO[4,3-b]PYRIDINES AND THEIR USE AS GLUN2B RECEPTOR MODULATORS” (JANSSEN PHARMACEUTICA NV, priority 2019, published 2022).

Test: Liver microsomal stability (extraction ratio)
Assay type: in vitro ADME
Details: test compound 1 μM; 0.5 mg/mL liver microsomes, NADPH 1 mM, 37° C.; predicted hepatic clearance (well-stirred model) divided by species blood flow; species not given
Procedure: Protocol for Liver Microsomal Stability (Extraction Ratio)
Liver Microsomal Stability. Microsomal stability studies (Chrovian et al, “1H-Pyrrolo[3,2-b]pyridine GluN2B-Selective Negative Allosteric Modulators”. ACS Med Chem Lett. 2019 Jan. 10; 10(3):261-266) were conducted on a Biomek® FX Robotic Liquid Handling Workstation (Beckman Coulter, Brea, Calif.), which consists of a 96-channel pipette head, a 12-position workstation deck, and a plate incubator. Test compounds (1 μM) were spiked in a reaction mix consisting of 100 mM potassium phosphate buffer (pH 7.4), 3 mM MgCl2, and 0.5 mg/mL liver microsomes from mouse, rat, and human (BD Gentest). The reaction was brought to 37° C. and initiated by adding NADPH to a final concentration of 1 mM. After mixing on the plate deck, 50 μL aliquots were excised from the reaction plate at 0, 5, 10, 20, 40, and 60 min and quenched with four volumes of acetonitrile spiked with […] of the internal standard phenytoin. Quenched plates were centrifuged at 5700 rpm for 10 min at 4° C., and supernatant was diluted 1:3 in water before LC/MS/MS analysis. The compound half-lives were derived from plots of the ln of percent remaining compound over time to determine the intrinsic clearance. The predicted hepatic clearance was derived from the intrinsic clearance value using equations from the well-stirred model (Current Drug Metabolism, 2008, 9, 940-951), where no correction was made plasma protein binding and the blood to plasma concentration ratio was assumed to be one. The extraction ratio (ER) was calculated by dividing the predicted hepatic clearance by species blood flow (Q), where Q is 90, 55, and 21.7 mL/min/kg for mouse, rat and human, respectively.

| SMILES | Extraction Ratio @ 1 μM |
| --- | --- |
| CC[S+]([O-])Cn1ncc2ncc(-c3cccc(C(F)(F)F)c3F)cc21 (racemic) [Example 86, (RS)-1-(Ethylsulfinylmethyl)-6-[2-fluoro-3-(trifluoromethyl)phenyl]pyrazolo[4,3-b]pyridine] | 0.50 |
| CC[S+]([O-])Cn1ncc2ncc(-c3ccc(F)c(C(F)F)c3)cc21 (single isomer, unassigned) [Example 85, (R*)-6-(3-(Difluoromethyl)-4-fluorophenyl)-1-((ethylsulfinyl)methyl)-1H-pyrazolo[4,3-b]pyridine] | 0.46 |
| CC(=O)Cn1ncc2ncc(-c3ccc(F)c(OC(F)F)c3)cc21 [Example 25, 1-[6-[3-(Difluoromethoxy)-4-fluoro-phenyl]pyrazolo[4,3-b]pyridin-1-yl]propan-2-one] | 0.64 |
| CCC(=O)Cn1nc(C)c2ncc(-c3ccc(F)c(C(F)F)c3)cc21 [Example 36, 1-(6-(3-(Difluoromethyl)-4-fluorophenyl)-3-methyl-1H-pyrazolo[4,3-b]pyridin-1-yl)butan-2-one] | 0.72 |
| CCC(=O)Cn1ncc2ncc(-c3cccc(C(F)(F)F)c3F)cc21 [Example 38, 1-[6-[2-Fluoro-3-(trifluoromethyl)phenyl]pyrazolo[4,3-b]pyridin-1-yl]butan-2-one] | 0.61 |
| O=C(Cn1ncc2ncc(-c3cccc(C(F)F)c3)cc21)C1CC1 [Example 61, 1-Cyclopropyl-2-[6-[3-(difluoromethyl)phenyl]pyrazolo[4,3-b]pyridin-1-yl]ethanone] | 0.43 |
| Cc1c(F)ccc(-c2cnc3cnn(CC(=O)C4CC4)c3c2)c1C [Example 78, 1-Cyclopropyl-2-[6-(4-fluoro-2,3-dimethyl-phenyl)pyrazolo[4,3-b]pyridin-1-yl]ethanone] | 0.52 |

More lines, now with the values ahead:

| Extraction Ratio @ 1 μM | SMILES |
| --- | --- |
| 0.58 | CCN1CC(Cn2ncc3ncc(-c4ccc(F)c(C(F)F)c4)cc32)OC1=O (racemic) [Example 131, (RS)-5-[[6-[3-(Difluoromethyl)-4-fluoro-phenyl]pyrazolo[4,3-b]pyridin-1-yl]methyl]-3-ethyl-oxazolidin-2-one] |
| 0.66 | CCC(=O)Cn1ncc2ncc(-c3ccc(F)c(C(F)F)c3)cc21 [Example 4, 1-[6-[3-(Difluoromethyl)-4-fluoro-phenyl]pyrazolo[4,3-b]pyridin-1-yl]butan-2-one] |
| 0.63 | CCC(=O)Cn1ncc2ncc(-c3cc(F)c(F)c(F)c3)cc21 [Example 42, 1-[6-(3,4,5-Trifluorophenyl)pyrazolo[4,3-b]pyridin-1-yl]butan-2-one] |
